Experimental data reported in US6509318B1, “TGF-B inhibitors and methods” (The Regents of the University of California, priority 2000, dated 2003).
Non-standard residues stand in square brackets, D forms with d. No end group written: not given here.

Experiments:
[1] = tested on: mink lung epithelium MV-1-Lu cells; experiment: DNA synthesis (3H-thymidine incorporation) in MV-1-Lu cells, additions alone; format: cell-based; details: for 3H-Thymidine Incorporation 10^3 d.p.m. ± S.D. / (+/−) % change over control when CITA is present: no TGF β-1; for 3H-Thymidine Incorporation 10^3 d.p.m. ± S.D.: MV-1-Lu cells, 24 h; for (+/−) % change over control when CITA is present: vs control (no additions); for decrease of DNA synthesis against the control: CITA alone, all concentrations examined (1, 10, 100 nM)
Source text: (§1) Inhibition of TGF β-1 Activity by CITAs: We have used a standardized in vitro assay for TGF β-1 as a test for the biological activity of CITAs. Our test is based on inhibiting the effect of TGF β-1 on a test cell proliferation system. In this assay, mink lung epithelium MV-1-Lu cells are exposed to TGF β-1. […] The decrease in DNA synthesis can be monitored by measuring the incorporation of labeled precursors in DNA. The incorporation of ^3H-thymidine in DNA in MV-1-Lu cells are used as a measure of cell proliferation. […] These concentrations of TGF β-1 were based on the amounts of TGF β-1 found in normal serum and in serum from patients with peritonitis, an inflammatory disease. The normal amount of TGF β-1 in human serum is approximately 2 nM (39 pG/ml). In patients with peritonitis, the amount increases to nearly 10 nM (169-216 pG/ml). The incorporation of ^3H-thymidine in the absence of TGF β-1 served as the control. To test the anti-TGF β-1 activity of CITAs, the cells were exposed to 1 nM, 10 nM, and 100 nM CITA-I, CITA-II, and CITA-III in the absence and in the presence of 5.0 nM and 10.0 nM TGF β-1.
(§2) Details of Experimental Procedures: 10^4 MV-1-Lu were plated in each well of a 12 well plate in 2.0 ml minimum essential medium containing non-essential amino acids (MEM) and 10% fetal bovine serum. After 24 hours, the medium was placed with serum free MEM and the cells were further cultured for two hours before the medium was placed with serum free MEM containing the test additives. After exposure to the test medium for 24 hours, the cells were pulse labeled for two hours with 0.5 μCi (methyl-^3H)-thymidine, (specific activity 60 Ci/mmol). After pulse labeling, the radioactive medium was removed, and the cells were washed 1× with 10% trichloracetic acid (TCA), 2× with 5% TCA, then 2× with phosphate buffered saline containing 50 μg/ml non-radioactive thymidine. The wash solutions were monitored to establish that no further unbound radioactive thymidine remained. The washed cell layers were dissolved in 1 ml 0.1 N NaOH containing 1% sodium dodecyl sulfate. The radioactivity in the solution was measured in a scintillation counter and expressed as disintegrations per minute (d.p.m.). Each test was carried out in quadruplicate, and the data presented as mean±standard deviation.

TGF β-1 = experiment: Inhibition of TGF β-1 activity by CITAs: reversal of TGF β-1 inhibition of DNA synthesis in MV-1-Lu cells; format: cell-based; details: for DNA synthesis restored, relative to the level seen with TGF β-1: MV-1-Lu cells exposed to 5 nM TGF β-1, all concentrations of CITAs; for reversal of the inhibition of DNA synthesis caused by TGF β-1 / 3H-Thymidine Incorporation 10^3 d.p.m. ± S.D.: MV-1-Lu cells; for reversal of the inhibition of DNA synthesis caused by TGF β-1: TGF β-1 5 nM and 10 nM; for 3H-Thymidine Incorporation 10^3 d.p.m. ± S.D.: 24 h; for (+/−) % change over control when CITA is present: vs control (no additions)
Source text: as §1, §2

[2] = TGF β-1 5 nM + CITA 1 nM, relative to TGF β-1 5 nM alone
[3] = TGF β-1 5 nM + CITA 10 nM, relative to TGF β-1 5 nM alone
[4] = TGF β-1 5 nM + CITA 100 nM, relative to TGF β-1 5 nM alone
[5] = TGF β-1 10 nM + CITA 1 nM, relative to TGF β-1 10 nM alone
[6] = TGF β-1 10 nM + CITA 10 nM, relative to TGF β-1 10 nM alone
[7] = TGF β-1 10 nM + CITA 100 nM, relative to TGF β-1 10 nM alone

Substance	3H-Thymidine Incorporation 10^3 d.p.m. ± S.D. ([1]; CITA 1 nM alone)	(+/−) % change over control when CITA is present ([1]; CITA 1 nM alone)	3H-Thymidine Incorporation 10^3 d.p.m. ± S.D. ([1]; CITA 10 nM alone)	(+/−) % change over control when CITA is present ([1]; CITA 10 nM alone)	3H-Thymidine Incorporation 10^3 d.p.m. ± S.D. ([1]; CITA 100 nM alone)	(+/−) % change over control when CITA is present ([1]; CITA 100 nM alone)	decrease of DNA synthesis against the control [1]	DNA synthesis restored, relative to the level seen with TGF β-1 (TGF β-1)	reversal of the inhibition of DNA synthesis caused by TGF β-1 (TGF β-1)	% Increase over TGF β-1. TGF β-1 + CITA/TGF β-1 × 100 (TGF β-1; [2])	3H-Thymidine Incorporation 10^3 d.p.m. ± S.D. (TGF β-1; TGF β-1 5 nM + CITA 1 nM)	(+/−) % change over control when CITA is present (TGF β-1; TGF β-1 5 nM + CITA 1 nM)	% Increase over TGF β-1. TGF β-1 + CITA/TGF β-1 × 100 (TGF β-1; [3])	3H-Thymidine Incorporation 10^3 d.p.m. ± S.D. (TGF β-1; TGF β-1 5 nM + CITA 10 nM)	(+/−) % change over control when CITA is present (TGF β-1; TGF β-1 5 nM + CITA 10 nM)	% Increase over TGF β-1. TGF β-1 + CITA/TGF β-1 × 100 (TGF β-1; [4])	3H-Thymidine Incorporation 10^3 d.p.m. ± S.D. (TGF β-1; TGF β-1 5 nM + CITA 100 nM)	(+/−) % change over control when CITA is present (TGF β-1; TGF β-1 5 nM + CITA 100 nM)	% Increase over TGF β-1. TGF β-1 + CITA/TGF β-1 × 100 (TGF β-1; [5])	3H-Thymidine Incorporation 10^3 d.p.m. ± S.D. (TGF β-1; TGF β-1 10 nM + CITA 1 nM)	also measured
Leu-Ile-Ala-Pro-D-Glu-Ala (LIAP[dE]A) [CITA-I]	46.46 ± 2.48 10^3 d.p.m.	−19%	44.93 ± 3.34 10^3 d.p.m.	−21%	45.10 ± 1.27 10^3 d.p.m.	−22%	approximately 20%	2 ×	markedly reversed the inhibition of DNA synthesis	250%	41.05 ± 2.04 10^3 d.p.m.	−29%	194%	31.88 ± 2.32 10^3 d.p.m.	−45%	181%	29.70 ± 2.79 10^3 d.p.m.	−49%	1113%	21.26 ± 1.30 10^3 d.p.m.	(+/−) % change over control when CITA is present (TGF β-1; TGF β-1 10 nM + CITA 1 nM): −63%; % Increase over TGF β-1. TGF β-1 + CITA/TGF β-1 × 100 (TGF β-1; [6]): 1373%; 3H-Thymidine Incorporation 10^3 d.p.m. ± S.D. (TGF β-1; TGF β-1 10 nM + CITA 10 nM): 26.23 ± 2.73 10^3 d.p.m.; (+/−) % change over control when CITA is present (TGF β-1; TGF β-1 10 nM + CITA 10 nM): −55%; % Increase over TGF β-1. TGF β-1 + CITA/TGF β-1 × 100 (TGF β-1; [7]): 906%; 3H-Thymidine Incorporation 10^3 d.p.m. ± S.D. (TGF β-1; TGF β-1 10 nM + CITA 100 nM): 17.30 ± 2.19 10^3 d.p.m.; (+/−) % change over control when CITA is present (TGF β-1; TGF β-1 10 nM + CITA 100 nM): −70%; increase in DNA synthesis in the inhibited cells (TGF β-1; cells severely inhibited by 10 nM TGF β-1, all concentrations of CITA-I): over 10 fold
Phe-Ile-Ala-Pro-D-Glu-Ala (FIAP[dE]A) [CITA-II]	45.10 ± 1.27 10^3 d.p.m.	−22%	42.03 ± 1.11 10^3 d.p.m.	−27%	43.08 ± 1.23 10^3 d.p.m.	−25%	approximately 20%	2 ×	markedly reversed the inhibition of DNA synthesis	184%	31.04 ± 1.07 10^3 d.p.m.	−29%	169%	27.75 ± 1.50 10^3 d.p.m.	−45%	207%	34.00 ± 0.86 10^3 d.p.m.	−49%	970%	18.51 ± 1.23 10^3 d.p.m.	(+/−) % change over control when CITA is present (TGF β-1; TGF β-1 10 nM + CITA 1 nM): −63%; % Increase over TGF β-1. TGF β-1 + CITA/TGF β-1 × 100 (TGF β-1; [6]): 1084%; 3H-Thymidine Incorporation 10^3 d.p.m. ± S.D. (TGF β-1; TGF β-1 10 nM + CITA 10 nM): 20.70 ± 2.63 10^3 d.p.m.; (+/−) % change over control when CITA is present (TGF β-1; TGF β-1 10 nM + CITA 10 nM): −55%; % Increase over TGF β-1. TGF β-1 + CITA/TGF β-1 × 100 (TGF β-1; [7]): 981%; 3H-Thymidine Incorporation 10^3 d.p.m. ± S.D. (TGF β-1; TGF β-1 10 nM + CITA 100 nM): 18.73 ± 1.67 10^3 d.p.m.; (+/−) % change over control when CITA is present (TGF β-1; TGF β-1 10 nM + CITA 100 nM): −70%
